Bridge positions count the residues as written; N and C are the ends. Square brackets hold non-standard residues; d marks the D form. Peptide text beside a SMILES is read from it. * marks the point of attachment. Asp(3,3-Me2) = CC(C)(C(=O)O)[C@H](N)C(=O)O; Bip = N[C@@H](Cc1ccc(-c2ccccc2)cc1)C(=O)O; Phe(3-CN) = N#Cc1cccc(C[C@H](N)C(=O)O)c1; Phe(3-F) = N[C@@H](Cc1cccc(F)c1)C(=O)O; Phe(3-Me) = Cc1cccc(C[C@H](N)C(=O)O)c1; Val(3-OH) = CC(C)(O)[C@H](N)C(=O)O; 4Pal = N[C@@H](Cc1ccncc1)C(=O)O; 2Thi = N[C@@H](Cc1cccs1)C(=O)O; Cha = N[C@@H](CC1CCCCC1)C(=O)O; Carboxymethyl = O=C(O)C*; NMeA = CN[C@@H](C)C(=O)O; Dab = NCC[C@H](N)C(=O)O
Target: T1, PE-labeled human PD-L1-Ig binding to Jurkat cell line over-expressing human PD-1 (Jurkat-PD-1) (Homo sapiens, UniProt Q15116)
T1 construct: expressed in transfected cells; host or cells: Jurkat
T1 sequence (Q15116 25-288): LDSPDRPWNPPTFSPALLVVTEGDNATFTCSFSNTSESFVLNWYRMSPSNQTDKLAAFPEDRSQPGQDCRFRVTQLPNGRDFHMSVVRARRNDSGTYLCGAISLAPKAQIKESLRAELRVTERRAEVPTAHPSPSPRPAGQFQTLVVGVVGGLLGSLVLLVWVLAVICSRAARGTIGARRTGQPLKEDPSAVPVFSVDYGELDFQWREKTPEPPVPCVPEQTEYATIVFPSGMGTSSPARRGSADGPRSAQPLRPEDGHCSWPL
Assay: Jurkat-PD-1 Cell Binding High-Content Screening Assay (CBA): Method 1
Conditions: Jurkat-hPD-1 cells, PE-labeled PD-L1-Ig 20 nM final; read-out: Jurkat HPDL1 PD1 IC50 (uM) (Method 1)

IC50 | Compound
0.01 µM | CCNC(=O)[C@H](CCN)NC(=O)[C@@H]1CSCC(=O)N[C@@H](Cc2ccncc2)C(=O)N[C@@H](Cc2ccc(OCC(=O)O)cc2)C(=O)N[C@@H](CC(=O)O)C(=O)N[C@@H](Cc2cccc(C)c2)C(=O)N[C@@H](Cc2cccc(F)c2)C(=O)N[C@@H](Cc2ccc(-c3ccccc3)cc2)C(=O)N[C@@H](C(C)C)C(=O)N(C)[C@@H](C)C(=O)N[C@H](CC(C)C)C(=O)N[C@@H](CCN)C(=O)N[C@@H](CC2CCCCC2)C(=O)N[C@@H](C(C)(C)O)C(=O)N[C@@H](CO)C(=O)N1 [Compound 1838] ({CH2CO}-[4Pal]Y(Carboxymethyl)D[Phe(3-Me)][Phe(3-F)][Bip]V[NMeA][dL][Dab][Cha][Val(3-OH)]SC[Dab]-NHEt; thioether N-14)
0.05 µM | CCNC(=O)[C@H](CCN)NC(=O)[C@@H]1CSCC(=O)N[C@@H](Cc2cccs2)C(=O)N[C@@H](Cc2cccc(C#N)c2)C(=O)N[C@@H](CC(=O)O)C(=O)N[C@@H](Cc2cccc(C)c2)C(=O)N[C@@H](Cc2cccc(F)c2)C(=O)N[C@@H](Cc2ccc(-c3ccccc3)cc2)C(=O)N[C@@H](C(C)C)C(=O)N(C)[C@@H](C)C(=O)N[C@H](CC(C)C)C(=O)N[C@@H](CCN)C(=O)N[C@@H](CC2CCCCC2)C(=O)N[C@@H](C(C)(C)O)C(=O)N[C@@H](CO)C(=O)N1 [Compound 1840] ({CH2CO}-[2Thi][Phe(3-CN)]D[Phe(3-Me)][Phe(3-F)][Bip]V[NMeA][dL][Dab][Cha][Val(3-OH)]SC[Dab]-NHEt; thioether N-14)
0.02 µM | CCNC(=O)[C@H](CCN)NC(=O)[C@@H]1CSCC(=O)N[C@@H](Cc2cccs2)C(=O)N[C@@H](Cc2cccc(C#N)c2)C(=O)N[C@@H](CC(=O)O)C(=O)N[C@@H](Cc2cccc(C)c2)C(=O)N[C@@H](Cc2cccc(F)c2)C(=O)N[C@@H](Cc2ccc(-c3ccccc3)cc2)C(=O)N[C@@H](Cc2ccc(OCC(=O)O)cc2)C(=O)N(C)[C@@H](C)C(=O)N[C@H](CC(C)C)C(=O)N[C@@H](CCN)C(=O)N[C@@H](CC2CCCCC2)C(=O)N[C@@H](C(C)(C)O)C(=O)N[C@@H](CO)C(=O)N1 [Compound 1841] ({CH2CO}-[2Thi][Phe(3-CN)]D[Phe(3-Me)][Phe(3-F)][Bip]Y(Carboxymethyl)[NMeA][dL][Dab][Cha][Val(3-OH)]SC[Dab]-NHEt; thioether N-14)
0.02 µM | CCNC(=O)[C@H](CCN)NC(=O)[C@@H]1CSCC(=O)N[C@@H]([C@@H](C)O)C(=O)N[C@@H](Cc2cccc(C#N)c2)C(=O)N[C@@H](CC(=O)O)C(=O)N[C@@H](Cc2cccc(C)c2)C(=O)N[C@@H](Cc2cccc(F)c2)C(=O)N[C@@H](Cc2ccc(-c3ccccc3)cc2)C(=O)N[C@@H](Cc2ccc(OCC(=O)O)cc2)C(=O)N(C)[C@@H](C)C(=O)N[C@H](CC(C)C)C(=O)N[C@@H](CCN)C(=O)N[C@@H](CC2CCCCC2)C(=O)N[C@@H](C(C)(C)O)C(=O)N[C@@H](CO)C(=O)N1 [Compound 1842] ({CH2CO}-T[Phe(3-CN)]D[Phe(3-Me)][Phe(3-F)][Bip]Y(Carboxymethyl)[NMeA][dL][Dab][Cha][Val(3-OH)]SC[Dab]-NHEt; thioether N-14)
0.01 µM | CCNC(=O)[C@H](CCN)NC(=O)[C@@H]1CSCC(=O)N[C@@H](Cc2ccncc2)C(=O)N[C@@H](Cc2cccc(C#N)c2)C(=O)N[C@@H](CC(=O)O)C(=O)N[C@@H](Cc2cccc(C)c2)C(=O)N[C@@H](Cc2cccc(F)c2)C(=O)N[C@@H](Cc2ccc(-c3ccccc3)cc2)C(=O)N[C@@H](Cc2ccc(OCC(=O)O)cc2)C(=O)N(C)[C@@H](C)C(=O)N[C@H](CC(C)C)C(=O)N[C@@H](CCN)C(=O)N[C@@H](CC2CCCCC2)C(=O)N[C@@H](C(C)(C)O)C(=O)N[C@@H](CO)C(=O)N1 [Compound 1843] ({CH2CO}-[4Pal][Phe(3-CN)]D[Phe(3-Me)][Phe(3-F)][Bip]Y(Carboxymethyl)[NMeA][dL][Dab][Cha][Val(3-OH)]SC[Dab]-NHEt; thioether N-14)
0.02 µM | CCNC(=O)[C@H](CCN)NC(=O)[C@@H]1CSCC(=O)N[C@@H]([C@@H](C)O)C(=O)N[C@@H](Cc2ccc(OCC(=O)O)cc2)C(=O)N[C@@H](CC(=O)O)C(=O)N[C@@H](Cc2cccc(C)c2)C(=O)N[C@@H](Cc2cccc(F)c2)C(=O)N[C@@H](Cc2ccc(-c3ccccc3)cc2)C(=O)N[C@@H](Cc2ccc(OCC(=O)O)cc2)C(=O)N(C)[C@@H](C)C(=O)N[C@H](CC(C)C)C(=O)N[C@@H](CCN)C(=O)N[C@@H](CC2CCCCC2)C(=O)N[C@@H](C(C)(C)O)C(=O)N[C@@H](CO)C(=O)N1 [Compound 1844] ({CH2CO}-TY(Carboxymethyl)D[Phe(3-Me)][Phe(3-F)][Bip]Y(Carboxymethyl)[NMeA][dL][Dab][Cha][Val(3-OH)]SC[Dab]-NHEt; thioether N-14)
0.01 µM | CCNC(=O)[C@H](CCN)NC(=O)[C@@H]1CSCC(=O)N[C@@H](Cc2ccncc2)C(=O)N[C@@H](Cc2ccc(OCC(=O)O)cc2)C(=O)N[C@@H](CC(=O)O)C(=O)N[C@@H](Cc2cccc(C)c2)C(=O)N[C@@H](Cc2cccc(F)c2)C(=O)N[C@@H](Cc2ccc(-c3ccccc3)cc2)C(=O)N[C@@H](Cc2ccc(OCC(=O)O)cc2)C(=O)N(C)[C@@H](C)C(=O)N[C@H](CC(C)C)C(=O)N[C@@H](CCN)C(=O)N[C@@H](CC2CCCCC2)C(=O)N[C@@H](C(C)(C)O)C(=O)N[C@@H](CO)C(=O)N1 [Compound 1845] ({CH2CO}-[4Pal]Y(Carboxymethyl)D[Phe(3-Me)][Phe(3-F)][Bip]Y(Carboxymethyl)[NMeA][dL][Dab][Cha][Val(3-OH)]SC[Dab]-NHEt; thioether N-14)
0.02 µM | Cc1cccc(C[C@@H]2NC(=O)[C@H](CC(=O)O)NC(=O)[C@H](Cc3ccc(OCC(=O)O)cc3)NC(=O)[C@H](CCN)NC(=O)CSC[C@@H](C(=O)N[C@@H](CCN)C(N)=O)NC(=O)[C@H](CO)NC(=O)[C@H](C(C)(C)O)NC(=O)[C@H](CC3CCCCC3)NC(=O)[C@H](CCN)NC(=O)[C@@H](CC(C)C)NC(=O)[C@H](C)N(C)C(=O)[C@H](C(C)(C)C(=O)O)NC(=O)[C@H](Cc3ccc(-c4ccccc4)cc3)NC(=O)[C@H](Cc3ccc(OCC(=O)O)cc3)NC2=O)c1 [Compound 1846] ({CH2CO}-[Dab]Y(Carboxymethyl)D[Phe(3-Me)]Y(Carboxymethyl)[Bip][Asp(3,3-Me2)][NMeA][dL][Dab][Cha][Val(3-OH)]SC[Dab]-NH2; thioether N-14)
0.7 µM | Cc1cccc(C[C@@H]2NC(=O)[C@H](CC(=O)O)NC(=O)[C@H](Cc3ccc(OCC(=O)O)cc3)NC(=O)[C@H](CCN)NC(=O)CSC[C@@H](C(=O)N[C@H](C(N)=O)C(C)(C)C(=O)O)NC(=O)[C@H](CO)NC(=O)[C@H](C(C)(C)O)NC(=O)[C@H](CC3CCCCC3)NC(=O)[C@H](CCN)NC(=O)[C@@H](CC(C)C)NC(=O)[C@H](C)N(C)C(=O)[C@H](Cc3ccc(OCC(=O)O)cc3)NC(=O)[C@H](Cc3ccc(-c4ccccc4)cc3)NC(=O)[C@H](Cc3ccc(OCC(=O)O)cc3)NC2=O)c1 [Compound 1847] ({CH2CO}-[Dab]Y(Carboxymethyl)D[Phe(3-Me)]Y(Carboxymethyl)[Bip]Y(Carboxymethyl)[NMeA][dL][Dab][Cha][Val(3-OH)]SC[Asp(3,3-Me2)]-NH2; thioether N-14)
